According to publication PMC9232612, “A phase 1b randomised controlled trial of a glucagon-like peptide-1 and glucagon receptor dual agonist IBI362 (LY3305677) in Chinese patients with type 2 diabetes” (Nature Communications, 2022):
Values joined by “and” are separate entries in the source; they are usually repeats but may differ in a detail not shown here. Identical values can stand only once. Values belong to the molecule of their own block, whether it stands above or below them.

Legend:
[1] = system: Chinese patients with T2D; assay: Treatment-emergent adverse events (MedDRA SOC/preferred term), 12-week once-weekly s.c. treatment plus 8-week safety follow-up, phase 1b; format: in vivo, human
Protocol: The study included a 3-week screening period, a 12-week treatment period and an 8-week safety follow-up period. During the 12-week treatment period, IBI362 or placebo was subcutaneously administered once weekly with one of the three dose-escalation schedules: 1.0–2.0–3.0 mg for the 3.0 mg cohort, 1.5–3.0–4.5 mg for the 4.5 mg cohort and 2.0–4.0–6.0 mg for the 6.0 mg cohort (each dose level administered for 4 weeks). The 6.0 mg cohort started dosing after tolerability evaluation of 1.5 mg dosing in the 4.5 mg cohort. The internal unblinded safety monitoring group was responsible for the safety monitoring. Dulaglutide was subcutaneously administered once weekly at a fixed dose of 1.5 mg. Patients who were on metformin prior to the enrolment of this trial were required to continue their previous dose of metformin throughout the trial. Investigators and authorized study personnel in each centre recorded the study data into the electronic case report forms (eCRFs), which were reviewed and validated by clinical research associates. The data in the eCRFs were submitted to the electronic data capture database.
(§1) Primary outcomes of the study were the safety and tolerability of IBI362. Safety assessment included adverse events, physical examinations, laboratory tests (including lipase, amylase and calcitonin level measures), vital signs and 12-lead electrocardiogram. Adverse events were categorized according to the Medical Dictionary for Regulatory Activities system organ classes (SOCs) and preferred terms. Treatment-emergent adverse events (TEAEs) were monitored from the time of informed consent to the safety follow-up period. The severity of TEAEs (mild, moderate or severe) and the association between an event and the study drug were assessed by investigators based on pre-specified criteria.
Safety analyses were done in the safety population (defined as all patients who received at least one dose of the study treatment). Pharmacokinetic analyses were done in the pharmacokinetic population (defined as all patients who received at least one dose of IBI362 and had at least one valid plasma concentration assessment).

[2] = system: Chinese patients with T2D; assay: Blood pressure (systolic, diastolic); format: in vivo, human; details: mean
Excerpt: as §1
Fig. S7: Change from baseline in waist circumference, BMI and blood pressure at week 12. a. CFB in waist circumference at week 12. b. CFB in BMI at week 12. c. CFB in blood pressure at week 12. Data are plotted as means +/- SD. a. IBI362 3.0 mg n = 7; IBI362 4.5 mg n = 5; IBI362 6.0 mg n = 8; Pooled placebo n = 11; Dulaglutide n = 6. b. IBI362 3.0 mg n = 7; IBI362 4.5 mg n = 5; […]
mg n = 6; IBI362 6.0 mg n = 8; Pooled placebo n = 11; Dulaglutide n = 6. BMI = body-mass index; CFB = change from baseline; DBP = diastolic blood pressure; SBP = systolic blood pressure; SD = standard deviation. Source data are provided as a Source Data file.
CFB in BMI at week 12 (kg/m2), […]
at week 12 (mm Hg), mean (SD)
CFB in waist circumference at week 12 (cm), mean (SD) […]

[3] = system: Chinese patients with T2D; assay: Homeostatic model assessment of β-cell function (HOMA-β); format: in vivo, human; details: for Change from baseline to week 12 in HOMA-β, individual: single patients
Excerpt: Exploratory outcomes included change from baseline in body weight, waist circumference, body-mass index (BMI) and change in homeostatic model assessment of β-cell function (HOMA-β) and insulin resistance (HOMA-IR).

[4] = Physical and chemical characteristics of drug substance (solubility, PI); format: physicochemical
Excerpt: IBI362 Innovent Biologics (Suzhou) Co., Ltd. CIBI362A101
IBI362 or placebo, the patient, the investigator, and all personnel involved in the clinical evaluation will be blinded to the treatment from the randomization to database locked, […]
Different drug numbers corresponded to random numbers after randomization in the IWRS, and the unblinding information remained unknown to patients and investigators throughout the trial. The randomization table will be kept by a designated […]
The study drug and placebo will be packaged, labeled, administered at the same time, and will have the appearance, taste, and smell exactly the same to hide the real situation of the treatment drug.
If necessary for the safety of the subject, emergency unblinding must be performed […]
If a patient is randomized to receive active control, the patient will not be blinded.
Sponsor will not be blinded during this study.
5.2.1 Physical and Chemical Characteristics of Drug Substance
Molecular weight: 4560.32 Dalton
Description: White to off-white powder
Solubility: Vehicle: 20 mM Tris buffer pH 8.0 and
Solubility: Not less than 10 mg/mL at
Solubility Description: Sparingly or
5.2.2 Study Drug Strength and Manufacturer
IBI362 is formulated as IBI362 for injection in a strength of 2 mg per vial and […]
The strength of the formulation used in this study is 2 mg/vial; Manufacturer: […]

human GLP-1 receptors = details: in vitro; cited from earlier work
Excerpt: (§2) IBI362 (also known as LY3305677) is a once-weekly synthetic peptide analogue of mammalian OXM, with a fatty-acyl moiety to extend the half-life[13].

human glucagon receptors = details: in vitro; cited from earlier work
Excerpt: as §2

mice = details: cited from earlier work
Excerpt: as §2

mouse GLP-1 receptors = details: in vitro; cited from earlier work
Excerpt: as §2

mouse glucagon receptors = details: in vitro; cited from earlier work
Excerpt: as §2

PI ([4]; drug substance): 5.2 | Solubility ([4]; vehicle 20 mM Tris buffer pH 8.0 and 150 mM sodium chloride, 25℃): Not less than 10 mg/mL
Molecule: CC(C)C[C@H](NC(=O)[C@H](CC(C)C)NC(=O)[C@H](Cc1c[nH]c2ccccc12)NC(=O)[C@H](CCC(=O)O)NC(=O)[C@@H](NC(=O)[C@H](Cc1ccccc1)NC(=O)[C@H](CCC(=O)O)NC(=O)[C@H](CCCCNC(=O)COCCOCCNC(=O)COCCOCCNC(=O)CC[C@H](NC(=O)CCCCCCCCCCCCCCCCCCC(=O)O)C(=O)O)NC(=O)[C@H](C)NC(=O)[C@H](CCCCN)NC(=O)[C@H](CCCCN)NC(=O)[C@H](CCC(=O)O)NC(=O)[C@H](CC(=O)O)NC(=O)[C@H](CC(C)C)NC(=O)[C@H](Cc1ccc(O)cc1)NC(=O)[C@H](CCCCN)NC(=O)[C@H](CO)NC(=O)[C@H](Cc1ccc(O)cc1)NC(=O)[C@H](CC(=O)O)NC(=O)[C@H](CO)NC(=O)[C@@H](NC(=O)[C@H](Cc1ccccc1)NC(=O)[C@@H](NC(=O)CNC(=O)[C@H](CCC(N)=O)NC(=O)C(C)(C)NC(=O)[C@@H](N)Cc1c[nH]cn1)[C@@H](C)O)[C@@H](C)O)C(C)C)C(=O)N[C@@H](CCC(=O)O)C(=O)NCC(=O)NCC(=O)N1CCC[C@H]1C(=O)N[C@@H](CO)C(=O)N[C@@H](CO)C(=O)NCC(N)=O [IBI362]
median time to resolution of gastrointestinal adverse events (diarrhoea, nausea and vomiting) ([1]; 4.5 mg group, 10 events): 3.5 days | median time to resolution of gastrointestinal adverse events (diarrhoea, nausea and vomiting) ([1]; 6.0 mg group, 11 events): 4 days | tolerability ([1]; 3.0, 4.5 and 6.0 mg dose-escalation regimens): well tolerated | Change from baseline to week 12 in blood pressure, diastolic ([2]; IBI362 3.0 mg): -1.4 mm Hg | Change from baseline to week 12 in blood pressure, systolic ([2]; IBI362 3.0 mg): -8.1 mm Hg | Change from baseline to week 12 in blood pressure, diastolic ([2]; IBI362 4.5 mg): -5.2 mm Hg | Change from baseline to week 12 in blood pressure, systolic ([2]; IBI362 4.5 mg): -6.7 mm Hg | Change from baseline to week 12 in blood pressure, diastolic ([2]; IBI362 6.0 mg): 2.3 mm Hg | Change from baseline to week 12 in blood pressure, systolic ([2]; IBI362 6.0 mg): -3.3 mm Hg | Change from baseline to week 12 in HOMA-β, mean ([3]; 3.0 mg cohort, n=7): 9.2% | Change from baseline to week 12 in HOMA-β, mean ([3]; 4.5 mg cohort, n=5): 26.4% | Change from baseline to week 12 in HOMA-β, mean ([3]; 6.0 mg cohort, n=8): 21.0% | Change from baseline to week 12 in HOMA-β, individual ([3]; 3.0 mg cohort, n=7): -8.1% and 15.7% and 23.0% and -3.8% and 14.4% and 16.4% and 6.9% | Change from baseline to week 12 in HOMA-β, individual ([3]; 4.5 mg cohort, n=5): -9.6% and 82.4% and -0.3% and 47.8% and 11.6% | Change from baseline to week 12 in HOMA-β, individual ([3]; 6.0 mg cohort, n=8): -6.2% and 6.9% and 72.2% and 5.4% and 33.9% and 27.9% and -1.8% and 29.8% | binding (human GLP-1 receptors): potently bound | binding (human glucagon receptors): potently bound | body weight (mice; both Gcgr KO and Glp1r KO settings): decreased body weight | energy expenditure (mice; mice): increased energy expenditure | glucose control (mice; mice): improved glucose control | binding (mouse GLP-1 receptors): potently bound | binding (mouse glucagon receptors): potently bound

Molecule: Dulaglutide: open-label active reference, subcutaneously once weekly at a fixed dose of 1.5 mg [reference compound]
Infections and infestations (SOC) ([1]; 1.5 mg once weekly, n=6): 0 number of patients (%) | Upper respiratory tract infection ([1]; 1.5 mg once weekly, n=6): 0 number of patients (%) | Urinary tract infection ([1]; 1.5 mg once weekly, n=6): 0 number of patients (%) | Change from baseline to week 12 in blood pressure, diastolic ([2]; Dulaglutide group): 4.0 mm Hg | Change from baseline to week 12 in blood pressure, systolic ([2]; Dulaglutide group): 5.8 mm Hg | Change from baseline to week 12 in HOMA-β, mean ([3]; 1.5 mg once weekly, n=6): 30.9% | Change from baseline to week 12 in HOMA-β, individual ([3]; 1.5 mg once weekly, n=6): 31.2% and 37.1% and 18.9% and 5.2% and 22.2% and 70.7%
